Test results: the Kinase Knowledgebase extract (Sharma et al. 2016)

How the values were obtained:
Test in all cases: Enzyme Assay
[1] = biological target: CDK2 (human) (UniProt P24941)
[2] = biological target: ROCK2 (human) (UniProt O75116)
[3] = biological target: MAPK14 (human) (UniProt Q16539)
Sequence of MAPK14 (human) (Q16539 whole entry, looked up): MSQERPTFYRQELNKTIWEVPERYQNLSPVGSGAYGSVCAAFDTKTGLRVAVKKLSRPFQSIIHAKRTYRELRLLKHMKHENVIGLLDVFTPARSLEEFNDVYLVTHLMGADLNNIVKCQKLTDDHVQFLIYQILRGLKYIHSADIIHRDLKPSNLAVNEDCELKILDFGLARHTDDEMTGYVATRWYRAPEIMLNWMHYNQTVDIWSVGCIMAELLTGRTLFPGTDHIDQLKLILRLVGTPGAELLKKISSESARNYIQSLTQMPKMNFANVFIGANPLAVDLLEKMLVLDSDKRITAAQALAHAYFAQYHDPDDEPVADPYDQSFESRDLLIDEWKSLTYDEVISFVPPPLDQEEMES

Sequence of ROCK2 (human) (O75116 whole entry, looked up): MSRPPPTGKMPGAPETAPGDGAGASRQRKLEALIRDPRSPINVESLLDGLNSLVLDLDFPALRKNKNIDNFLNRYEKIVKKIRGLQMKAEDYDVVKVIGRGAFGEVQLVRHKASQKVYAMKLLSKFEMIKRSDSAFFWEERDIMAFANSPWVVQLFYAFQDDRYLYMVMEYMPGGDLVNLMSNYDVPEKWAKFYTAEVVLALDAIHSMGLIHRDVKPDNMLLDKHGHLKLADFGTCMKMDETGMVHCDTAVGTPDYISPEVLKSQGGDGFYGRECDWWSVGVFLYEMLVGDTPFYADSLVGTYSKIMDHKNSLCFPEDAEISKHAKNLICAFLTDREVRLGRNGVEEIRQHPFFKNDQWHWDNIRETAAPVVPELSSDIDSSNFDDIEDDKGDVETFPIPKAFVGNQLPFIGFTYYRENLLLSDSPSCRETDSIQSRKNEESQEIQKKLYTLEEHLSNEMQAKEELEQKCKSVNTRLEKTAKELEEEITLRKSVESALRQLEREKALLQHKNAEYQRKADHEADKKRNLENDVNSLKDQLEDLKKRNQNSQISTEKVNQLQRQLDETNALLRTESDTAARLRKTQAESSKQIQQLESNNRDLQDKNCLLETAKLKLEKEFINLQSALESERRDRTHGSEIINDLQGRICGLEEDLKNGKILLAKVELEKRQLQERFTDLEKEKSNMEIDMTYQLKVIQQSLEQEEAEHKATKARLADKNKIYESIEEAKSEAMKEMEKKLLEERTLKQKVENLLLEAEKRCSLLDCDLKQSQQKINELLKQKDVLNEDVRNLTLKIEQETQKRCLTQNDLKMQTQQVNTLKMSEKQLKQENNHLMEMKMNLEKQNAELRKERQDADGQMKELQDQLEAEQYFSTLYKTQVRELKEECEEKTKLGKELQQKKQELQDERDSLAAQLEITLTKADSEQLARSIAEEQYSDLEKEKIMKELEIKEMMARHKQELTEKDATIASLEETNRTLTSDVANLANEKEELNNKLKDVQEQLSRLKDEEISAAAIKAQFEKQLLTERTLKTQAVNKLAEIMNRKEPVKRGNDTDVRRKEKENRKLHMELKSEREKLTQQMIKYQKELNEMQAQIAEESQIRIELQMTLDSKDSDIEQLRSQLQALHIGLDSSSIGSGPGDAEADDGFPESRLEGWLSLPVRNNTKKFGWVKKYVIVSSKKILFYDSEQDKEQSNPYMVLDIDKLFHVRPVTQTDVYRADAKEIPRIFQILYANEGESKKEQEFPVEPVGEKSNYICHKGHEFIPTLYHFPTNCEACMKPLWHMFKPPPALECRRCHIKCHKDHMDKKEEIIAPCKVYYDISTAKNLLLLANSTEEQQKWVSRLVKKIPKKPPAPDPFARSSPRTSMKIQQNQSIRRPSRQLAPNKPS

Compound | Ki [1] [µM] | Ki [2] [µM] | Ki [3] [µM]
c1cnc2[nH]cc(-c3ccnc(NCC4CCCCC4)n3)c2c1 | 0.00398 | 0.00631 | –
O=C(Nc1cccc(C(F)(F)F)n1)Nc1ccnc2ccc(F)cc12 | – | > 3.98 | –
O=C1Nc2ccccc2Nc2cc(-c3ccncc3)ccc21 | 1 | 0.316 | –
Cc1ccc(Nc2nccc(Nc3ccccc3C(=O)O)n2)cc1F | 0.398 | > 7.94 | –
N#Cc1ccc2[nH]c(O)c(-c3ccc(CN4CCOCC4)cn3)c2c1 | 1 | > 6.31 | –
O=C(Nc1ccccc1)Nc1nccs1 | 20 | – | –
CS(=O)(=O)Nc1ccccc1-c1ccc2c(c1)Nc1ccccc1NC2=O | 6.31 | – | –
NC1CCCCC1Nc1nccc(Nc2ccccc2C(=O)O)n1 (stereo not drawn) | – | > 7.94 | –
Cc1cc(Nc2cc(N3CCN(C)CC3)nc(Sc3ccc(NC(=O)C4CC4)cc3)n2)[nH]n1 | – | > 3.98 | –
CCCCCCCCCCCCOc1ccc(NC(=N)N)cc1NC(=N)N | 5.01 | 3.16 | –
c1ccc(Cn2nnc(-c3ccc4[nH]ncc4c3)c2-c2ccccc2)cc1 | 0.0631 | – | –
NC(=O)c1ccc2c(ccn2-c2cccc(Cl)c2)c1 | – | 2.51 | –
Cc1cccc(CNc2cc(-c3c[nH]c4ncccc34)ncn2)c1 | 0.0398 | 0.0126 | –
O=C1NC(=O)C(c2c[nH]c3ccccc23)=C1c1nc(N2CCNCC2)nc2ccccc12 | – | > 3.98 | –
Clc1cc(-c2c[nH]c3ncccc23)nc(NC2CCCCC2)n1 | 0.2 | 0.126 | –
COCCN(CCOC)c1cc(-c2c[nH]c3ncccc23)cc(Cl)n1 | 2 | 0.0398 | –
CCCCC(=O)Nc1cc(-c2c[nH]c3ncccc23)cc(Cl)n1 | – | 0.158 | –
Cc1cc(=O)[nH]c2[nH]nc(-c3cccc(C(F)(F)F)c3)c12 | – | – | 0.398
CNCCOc1cncc(-c2ccc3[nH]nc(C)c3c2)c1 | 0.501 | 0.02 | –
CC(C)(O)CNc1cc(-c2c[nH]c3ncccc23)cc(Cl)n1 | 0.251 | 0.0158 | –
NC(=O)c1ccc2nc(-c3ccc([N+](=O)[O-])o3)cn2c1 | – | – | 3.16
Nc1noc2cccc(-c3cccc(O)c3)c12 | – | 0.251 | –
Fc1ccc2c(c1)-c1n[nH]cc1CS2 | 20 | – | –
Nc1ncnc2c1c(-c1cnc3[nH]ccc3c1)nn2C1CCCC1 | – | 0.0398 | –
NC1CCCCC1Nc1nccc(-c2c[nH]c3ncccc23)n1 (stereo not drawn) | 0.0126 | – | –

Compound | Ki [1] [µM] | Ki [2] [µM] | Ki [3] [µM]
Clc1cc(NC2CCCCC2)nc(-c2c[nH]c3ncccc23)n1 | – | > 0.316 | –
O=C1c2ccccc2-c2n[nH]c3cccc1c23 | 0.0794 | 3.16 | –
Nc1n[nH]c2ccc(-c3nnn(Cc4ccccc4)c3C3CC3)cc12 | 0.0794 | 0.02 | –
NCCCn1cc(-c2cc(-c3cc4ccccc4s3)c3[nH]ncc3c2)c2nc(N)ncc21 | 0.0126 | 0.0631 | –
COc1c(-c2nc3ccccc3[nH]2)c(O)cc2oc(C)cc(=O)c12 | – | – | 3.98
Cc1c(C=O)c(O)n2c(nc3ccccc32)c1C#N | – | > 7.94 | –
Cc1n[nH]c2ccc(-c3cncc(OCCNS(C)(=O)=O)c3)cc12 | 0.316 | 0.158 | –
OCCCCNc1cc(-c2c[nH]c3ncccc23)cc(Cl)n1 | 0.126 | 0.0158 | –
Cc1cc(=O)n2[nH]cc(C(=O)NCc3ccccc3)c2n1 | – | 2.51 | –
FC(F)(F)c1ccccc1CNc1nccc(-c2c[nH]c3ncccc23)n1 | 0.00501 | – | –
CCOC(=O)c1c[nH]n2c(=O)cc(-c3ccncc3)nc12 | – | 2 | –
C=CCNc1cc(-c2c[nH]c3ncccc23)cc(Cl)n1 | 0.1 | 0.0126 | –
COc1ccc(C(=O)Nc2n[nH]c3ccc(-c4cn(Cc5ccccc5)nn4)cc23)cc1OC | 0.0126 | 0.794 | –
CCCCNc1cc(-c2c[nH]c3ncccc23)ncn1 | 0.2 | 0.02 | –
Fc1cccc(CNc2ncnc3[nH]cnc23)c1 | – | – | 15.8
Nc1n[nH]c2ccc(-c3cc(Cc4ccccc4)no3)cc12 | 0.2 | 0.0251 | –
Cc1ccc(-c2cc(-c3cc(Br)ccc3O)[nH]c(=O)c2C#N)s1 | – | – | 2.51
CC(C)CC(NC(=O)c1cccc(-n2nc(C(C)(C)C)cc2NC(=O)Nc2cccc3ccccc23)c1)C(N)=O (stereo not drawn) | – | – | 0.794
CCN(CCN(C)C)C(=O)c1cccc(-n2nc(C(C)(C)C)cc2NC(=O)Nc2cccc3ccccc23)c1 | – | – | 0.794
COCC(C)Nc1cc(-c2c[nH]c3ncccc23)cc(Cl)n1 (stereo not drawn) | 0.158 | 0.00794 | –
CCOC(=O)c1cn(-c2ccc(O)cc2C)c2cc(-c3ccncc3)ccc2c1=O | 3.98 | 0.0316 | –
CCCCNc1c(-c2ccc3[nH]ncc3c2)nc2ncccn12 | 0.398 | 0.0631 | –
CC(C)(CO)CNc1nccc(-c2c(-c3ccc(F)cc3)nc3c(CC4CC4)nccn23)n1 | – | > 7.94 | –
Cn1cncc1C(OCc1c(-c2ccc(OC(F)(F)F)cc2)cc(C#N)c(=O)n1C)c1ccc(C#N)cc1 (stereo not drawn) | – | > 7.94 | –
CN(Cc1ccccc1)c1cc(-c2c[nH]c3ncccc23)cc(Cl)n1 | 0.0316 | 0.02 | –

Compound | Ki [1] [µM] | Ki [2] [µM] | Ki [3] [µM]
O=C(Nc1n[nH]c2ccc(-c3cn(Cc4ccccc4)nn3)cc12)c1cc(F)ccc1F | 0.0251 | > 5.01 | –
Cc1sc2[nH]c(=O)n3nc(-c4ccncc4)nc3c2c1C | – | 3.98 | –
COCCNc1cc(-c2c[nH]c3ncccc23)cc(Cl)n1 | 0.251 | 0.00501 | –
CN(c1ccccc1-c1ccc2c(c1)Nc1ccccc1NC2=O)S(C)(=O)=O | 2 | – | –
c1ccc(Cn2cc(-c3ccc4[nH]nc(-c5ccccc5)c4c3)nn2)cc1 | 0.1 | 0.0631 | –
Cc1cccc(NC(=O)Nc2ccc3c(c2)CCc2sc4ncnc(N)c4c2-3)c1 | – | 0.0794 | –
Cc1ccc2nccc(NC(=O)Nc3cccc(C(F)(F)F)n3)c2c1 | 0.0794 | > 6.31 | –
CCNC(=O)c1[nH]nc(-c2cc(Cl)c(O)cc2O)c1-c1ccc(OC)cc1 | 6.31 | 2.51 | –
Cc1n[nH]c2ccc(-c3cncc(OCCN(C)S(C)(=O)=O)c3)cc12 | 0.501 | 0.1 | –
COc1ccccc1C(=O)Nc1n[nH]c2ccc(-c3cn(Cc4ccccc4)nn3)cc12 | 0.251 | > 7.94 | –
O=C(NCc1ccccc1)c1c[nH]n2c(=O)cc(-c3ccncc3)nc12 | 0.158 | > 7.94 | –
O=c1cc(-c2ccncc2)nc(NCc2cc(F)cc(F)c2)[nH]1 | 0.794 | 0.794 | –
Cc1cccc(CNc2cc(-c3c[nH]c4ncccc34)cc(Cl)n2)c1C | 0.2 | 0.0316 | –
O=c1cc(-c2cccc(F)c2)[nH]c2c(-c3ccc(F)cc3)cnn12 | – | > 7.94 | –
NC(=O)Cn1cc(-c2cc(-c3cc4ccccc4s3)c3[nH]ncc3c2)c2nc(N)ncc21 | 0.398 | 0.316 | –
NC(=O)c1ccccc1Nc1nc(Nc2ccccc2)ncc1C(F)(F)F | – | 0.501 | –
NC(=O)c1ccc(-c2ccncc2)cc1NCc1cccc(F)c1 | 3.16 | 5.01 | –
Fc1cccc(-c2c[nH]c3ncccc23)c1 | 1.26 | 0.316 | –
NC(=O)c1ccc(-c2nc(-c3ccc4c(c3)OCO4)c(-c3ccccn3)[nH]2)cc1 | – | > 3.98 | –
CCCn1c(=O)c2[nH]c(-c3cnn(Cc4cccc(C(F)(F)F)c4)c3)nc2n(CC)c1=O | 5.01 | – | –
COc1cc2c(cc1F)C(c1ccccc1Cl)=Nc1c(n[nH]c1C)N2 | – | > 7.94 | –
CCn1c(-c2nonc2N)nc2cnc(Oc3cccc(NC(=O)c4ccc(OCCN5CCOCC5)cc4)c3)cc21 | 0.794 | – | –
NC(=O)c1ccc(Nc2ncnc3[nH]cc(-c4ccccc4)c23)cc1 | 0.501 | 0.251 | –
O=C1Nc2ccccc2Nc2cc(-c3ccncc3F)ccc21 | 0.398 | 0.126 | –
CN(C)c1cc(-c2ccncc2)cc2[nH]nc(N)c12 | 0.631 | 0.0794 | –

Compound | Ki [1] [µM] | Ki [2] [µM] | Ki [3] [µM]
CN(C)C1CCC(Nc2nc(Cl)cc(-c3c[nH]c4ncccc34)n2)CC1 (stereo not drawn) | 0.0251 | 0.00251 | –
c1ccc(Cn2cc(-c3ccc4[nH]nc(-c5cn(Cc6ccccc6)nn5)c4c3)nn2)cc1 | 0.00501 | 0.126 | –
O=[N+]([O-])c1cccc(-c2nnc3ccc(N4CCCCC4)nn23)c1 | 0.631 | > 7.94 | –
CS(=O)(=O)N(Cc1ccc2[nH]c(=O)c3cccn3c2c1)C1CC1 | – | > 7.94 | –
CCOC(=O)c1c(NC(=O)C2C(C)(C)C2(C)C)sc2cnccc12 | 1 | – | –
O=C(O)c1ccccc1Nc1ccnc(NCc2cccc(O)c2)n1 | – | > 7.94 | –
O=c1cc(-c2ccc(F)cc2)[nH]c2c(-c3ccc(F)cc3)cnn12 | – | > 7.94 | –
CC(C)(CO)CCCNc1cc(-c2c[nH]c3ncccc23)cc(Cl)n1 | 0.1 | 0.01 | –
CCCCOc1cc(-c2ccncc2)cc2[nH]nc(N)c12 | 1 | 0.126 | –
Cn1cc(-c2ccccc2)c2nc(-c3ccncc3)cc(=O)n21 | – | 3.16 | –
CN(C)CCCOc1cc(-c2ccncc2)cc2[nH]nc(N)c12 | 3.16 | 0.251 | –
NNc1cc(N2CCOCC2)nc(OCCc2ccccn2)n1 | – | > 5.01 | –
O=C1CN=C(c2cccc(Cl)c2)c2c(sc3c2CCCC3)N1 | 7.94 | – | –
CN(C)c1ccc(-c2c(-c3ccc4[nH]nc(N)c4c3)nnn2Cc2ccccc2)cc1 | 0.126 | 0.02 | –
Oc1ccc(-c2nc(-c3ccc(F)cc3)c(-c3ccncc3)[nH]2)cc1 | – | > 3.98 | –
O=C(O)c1ccccc1Nc1ncnc(Nc2ccc3cn[nH]c3c2)n1 | 0.316 | > 5.01 | –
Cc1ccccc1-c1c(-c2ccc3[nH]nc(C)c3c2)nnn1Cc1ccccc1 | 0.00398 | – | –
CCCCNc1cc(-c2ccncc2)cc2[nH]nc(N)c12 | 0.2 | 0.0631 | –
NC(=O)c1cc(-c2ccnc(N)n2)[nH]c1-c1ccc(Cl)cc1Cl | – | 0.316 | –
CC(C)(C)Oc1cc(-c2ccncc2)cc2[nH]nc(N)c12 | 0.126 | 0.0501 | –
NC(=O)c1ccc(-c2ccnc(N)n2)cc1N1CCCCC1 | 1.26 | 1.58 | –
OCCNc1cc(-c2c[nH]c3ncccc23)cc(Cl)n1 | 0.316 | 0.02 | –
c1ccc(-c2n[nH]cc2-c2ccncc2)cc1 | 12.6 | – | –
O=C1Nc2ccccc2Nc2cc(-c3ccncc3Cl)ccc21 | 0.501 | 0.631 | –
CN1CCN(c2nc(C3=C(c4c[nH]c5ccccc45)C(=O)NC3=O)c3ccccc3n2)CC1 | 0.126 | > 7.94 | –
